Test results as given in paper PMC6843571, “Effects of Single Nucleotide Polymorphism Ala270Ser (rs316019) on the Function and Regulation of hOCT2” (Biomolecules, 2019).
Substitutions are numbered along the chain they refer to. Several values for one entry are separate records, joined by “and”; a condition that tells them apart may be missing. Equal values may be shown once.

Columns and labels:
hOCT2 Ala270Ser [1] = biological target: T1, hOCT2 Ala270Ser (Homo sapiens, UniProt O15244); test: ASP+ uptake saturation experiments (microfluorimetry), hOCT2 Ala270Ser; assay type: cell-based; details: hOCT2 Ala270Ser in stably transfected HEK cells
T1 construct: expressed in transfected cells
T1 sequence (O15244 1-555): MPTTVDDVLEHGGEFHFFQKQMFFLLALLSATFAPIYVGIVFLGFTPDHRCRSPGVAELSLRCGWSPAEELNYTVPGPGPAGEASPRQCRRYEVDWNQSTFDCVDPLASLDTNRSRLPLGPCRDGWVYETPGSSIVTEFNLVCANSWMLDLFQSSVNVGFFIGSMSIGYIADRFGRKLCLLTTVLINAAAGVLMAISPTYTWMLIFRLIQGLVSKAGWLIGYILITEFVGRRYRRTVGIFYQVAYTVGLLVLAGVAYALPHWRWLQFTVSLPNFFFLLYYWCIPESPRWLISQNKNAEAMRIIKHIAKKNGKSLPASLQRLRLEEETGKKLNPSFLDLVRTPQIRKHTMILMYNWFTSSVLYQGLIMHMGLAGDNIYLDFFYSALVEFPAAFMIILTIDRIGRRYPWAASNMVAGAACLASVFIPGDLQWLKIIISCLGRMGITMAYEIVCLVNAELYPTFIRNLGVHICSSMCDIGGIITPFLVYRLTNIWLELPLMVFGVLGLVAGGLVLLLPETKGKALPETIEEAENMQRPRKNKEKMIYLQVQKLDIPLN
Experimental: (§1) Measurement of hOCT2 function in HEK293 cells was performed using microfluorimetry with the fluorescent organic cation 4-(4-(dimethylamino)styryl)-N-methylpyridinium (ASP^+) as the substrate, as described previously in detail. As shown in previous work, this method allows a real-time measurement of the transporter function. The initial rate of ASP^+ uptake was calculated, as it reflects the activity of the transporter.
(§2) Briefly, ASP^+ cellular fluorescence was measured in a microtiterplate reader (Tecan infinite m200; Tecan, Crailsheim, Germany) at 37 °C using an excitation wavelength of 450 nm and an emission of 590 nm. Before fluorescence measurements, cells confluently grown in 96-well plates were washed in ringer-like solution (in mmol/L: 145 NaCl, 1.6 K2HPO4, 0.4 KH2PO4, 5 D-glucose, 1 MgCl2, 1.3 calcium gluconate, pH 7.4). Cell fluorescence was measured before and after ASP^+ addition to the cells. The kinetic characteristics of hOCT WT and hOCT2 Ala270Ser were investigated performing saturation experiments with increasing ASP^+ concentrations. Non-hOCT2-mediated ASP^+ uptake was evaluated in the presence of a huge amount (1 mM) of tetrapentylammonium (TPA^+) and subtracted from the total ASP^+ uptake in order to evaluate the ASP^+ uptake mediated specifically by hOCT2, as shown already in References. […]

hOCT2 WT [2] = biological target: T2, hOCT2 WT (Homo sapiens, UniProt O15244); test: ASP+ uptake saturation experiments (microfluorimetry), hOCT2 WT; assay type: cell-based; details: hOCT2 WT in stably transfected HEK cells; specific uptake (minus uptake with 1 mM TPA^+); 37 °C, pH 7.4
T2 construct: expressed in transfected cells
T2 sequence (O15244 1-555 S270A): T1 sequence (O15244 1-555) with S270A
Experimental: as §1, §2

hOCT2 WT [3] = biological target: T3, hOCT2 WT (Homo sapiens, UniProt O15244, S270A); test: as above; assay type: cell-based; details: hOCT2 WT in stably transfected HEK cells; specific uptake
T3 construct: expressed in transfected cells
T3 sequence (O15244 1-555 S270A): T1 sequence (O15244 1-555) with S270A
Experimental: as §1, §2

hOCT2 Ala270Ser [4] = biological target: T1, hOCT2 Ala270Ser; test: Inhibition of ASP+ uptake by competitors, hOCT2 Ala270Ser; assay type: cell-based; details: 1 µM ASP^+; for IC50: HEK293 hOCT2 Ala270Ser cells, 37 °C, pH 7.4, read-out: hOCT2 Ala270Ser IC50 (apparent affinity, inhibition of ASP^+ uptake); for hOCT2 Ala270Ser logIC50 ± SEM: log of IC50, in parenthesis in Table 1
hOCT2 WT [5] = biological target: T2, hOCT2 WT; test: Inhibition of ASP+ uptake by competitors, hOCT2 WT; assay type: cell-based; details: 1 µM ASP^+; HEK293 hOCT2 WT cells; 37 °C, pH 7.4; read-out: hOCT2 WT IC50 (apparent affinity, inhibition of ASP^+ uptake)
hOCT2 WT [6] = biological target: T3, hOCT2 WT; test: Inhibition of ASP+ uptake by competitors, hOCT2 WT; assay type: cell-based; details: 1 µM ASP^+, hOCT2 WT cells; for hOCT2 WT logIC50 ± SEM: log of IC50, in parenthesis in Table 1
hOCT2 WT cells = test: Cytoviability (MTT) assay, hOCT2 WT cells; assay type: cell-based, human
Experimental: (§3) The cytotoxicity of cisplatin was evaluated using a modified 3-(4,5-dimethylthiazol-2-yl)-2,5-diphenyltetrazoliumbromid (MTT) assay. The HEK293 cells grown for 24 hours in 96-well plates were incubated for 10 min at 37 °C with different concentrations of cisplatin (Calbiochem, Merck Chemicals GmbH, Darmstadt, Germany) dissolved in a ringer-like solution. The cisplatin solution was then removed, and the cells were grown in fresh medium for 48 hours. Afterwards, the cells were incubated with 10 µL MTT (Sigma, Steinheim, Germany) solution containing 5 mg/mL of the dye for three hours at 37 °C. Then, MTT was removed, and the cells were lysed with a solution containing 10% (w/v) sodium dodecyl sulfate and 40% (v/v) dimethylformamide. After 90 min, absorption was measured at 570 nm in a multiplate reader (Tecan infinite m200, Tecan, Tecan Group Ltd., Crailsheim, Germany).

hOCT2 Ala270Ser [7] = biological target: T1, hOCT2 Ala270Ser; test: Cellular platinum accumulation by ICP-MS, hOCT2 Ala270Ser cells; assay type: cell-based; details: 2 min incubation with 100 µM cisplatin, mean ± SEM
Experimental: (§4) Intracellular cisplatin concentrations were determined using inductively coupled plasma mass spectrometry (ICP-MS), which provides information on the elemental concentration in samples [27, 28], as described before. To do this, cells were grown for five days on 6-well plates and incubated at 37 °C for 2 min with 2 mL of 100 µM cisplatin freshly prepared in a ringer-like solution. After incubation, cells were rapidly washed with ice-cold PBS and then hypotonically lysed using distilled water and sonication for 15 min. For the ICP-MS analysis, 100 µL of cell lysates together with 100 µL of rhodium standard (Rh 1000 µg/mL, Scpscience, Marktoberdorf, Germany) were mixed with 9.8 mL 2% HNO3. Standard platinum for ICP (Merck) was diluted in 2% HNO3, and linear regression was performed (r² = 0.998 and 0.999). Samples were analyzed using ICP-MS iCap QC, autosampler AccelaAS (Thermo Fisher Scientific, Bremen, Germany) and Qtegra ISDS software (Thermo Fisher Scientific). The protein content of lysed cells was determined by absorption measurements using PicoDrop Pico 1000 (PicoDrop, Saffron Walden, UK).

hOCT2 WT [8] = biological target: T2, hOCT2 WT; test: Cellular platinum accumulation by ICP-MS, hOCT2 WT cells; assay type: cell-based; details: 2 min incubation with 100 µM cisplatin, mean ± SEM
Experimental: as §4

hOCT2 Ala270Ser cells = test: Cytoviability (MTT) assay, hOCT2 Ala270Ser cells; assay type: cell-based, human
Experimental: as §3

[9] = system: hOCT2 WT-mediated ASP^+ uptake; test: Rapid regulation of ASP+ uptake, hOCT2 WT cells; assay type: cell-based, human; details: 1 µM ASP^+, compared to control
Experimental: (§5) Moreover, since it is known that the activity of hOCT2 can be regulated by several kinases, the effect of the Ala270Ser substitution on regulation by calmodulin and p56^lck tyrosine kinase of hOCT2 was investigated. The regulation by these two pathways is conserved along all the OCTs. To study the rapid regulation of hOCT2, cells were incubated for 10 min at 37 °C with calmidazolium (5 µM), a potent specific inhibitor of calmodulin [24], with aminogenistein (10 µM), a specific inhibitor of p56^lck tyrosine kinase, or with ringer-like solution as a control. Regulators were dissolved in ethanol (calmidazolium) or DMSO (aminogenistein) at a concentration that had no impact on ASP^+ transport. After incubation, fluorescence measurements were carried out with 1 µM ASP^+.

[10] = system: hOCT2 Ala270Ser-mediated ASP^+ uptake; test: Rapid regulation of ASP+ uptake, hOCT2 Ala270Ser cells; assay type: cell-based, human; details: 1 µM ASP^+, compared to control
Experimental: as §5

[11] = 10 min incubation, then 48 hours in fresh medium
[12] = read-out: EC50 (concentration giving 50% of the toxic effect), MTT assay, 10 min incubation, then 48 hours in fresh medium
[13] = 10 min incubation with 10 µM aminogenistein
[14] = 10 min incubation with 5 µM calmidazolium

Row | IC50 (hOCT2 Ala270Ser [4]) | hOCT2 Ala270Ser logIC50 ± SEM (hOCT2 Ala270Ser [4]; hOCT2 Ala270Ser cells) | IC50 (hOCT2 WT [5]) | hOCT2 WT logIC50 ± SEM (hOCT2 WT [6]) | SMILES | other results
1 | – | – | – | – | CN(C)c1ccc(C=Cc2cc[n+](C)cc2)cc1 [ASP^+, 4-(4-(dimethylamino)styryl)-N-methylpyridinium] | Vmax of ASP^+ uptake (hOCT2 Ala270Ser [1]; specific uptake): 484 ± 50 arbitrary units/µg protein s^2; Km (hOCT2 Ala270Ser [1]; specific uptake (minus uptake with 1 mM TPA^+), 37 °C, pH 7.4): 4.9 ± 1.6 µM; Km (hOCT2 WT [2]): 4 ± 1 µM; Vmax of ASP^+ uptake (hOCT2 WT [3]): 516 ± 23 arbitrary units/µg protein s^2
2 | 40 µM | −4.40 ± 0.19 | 23 µM | −4.64 ± 0.12 | CN/C(=N/CCSCc1nc[nH]c1C)NC#N [Cimetidine, cimetidine] | –
3 | 9800 µM | −2.01 ± 0.06 | 18600 µM | −1.73 ± 0.04 | CN1CC(=O)NC1=N [Creatinine, creatinine] | –
4 | 4000 µM | −2.40 ± 0.07 | 4600 µM | −2.33 ± 0.06 | NCCc1c[nH]cn1 [Histamine, histamine] | –
5 | – | – | – | −2.71 ± 0.06 | CN(C)CCCN1c2ccccc2CCc2ccccc21 [Imipramine, imipramine] | –
6 | 800 µM and 848 µM | −3.07 ± 0.05 | 900 µM and 868 µM | −3.06 ± 0.05 | CN(C)C(=N)N=C(N)N [Metformin, metformin] | –
7 | 106 µM | −3.98 ± 0.06 | 87 µM | −4.06 ± 0.05 | Cc1ncc(C[n+]2csc(CCO)c2C)c(N)n1 [Thiamin, thiamine] | –
8 | ~2400 µM | −2.61 ± 0.28 | ~5400 µM | −2.27 ± 0.28 | N[C@@H](Cc1c[nH]c2ccccc12)C(=O)O [Tryptophan, tryptophan] | Inhibition of ASP^+ uptake (in words) (hOCT2 Ala270Ser [4]; hOCT2 Ala270Ser cells): inhibit a small part of the ASP^+ uptake only at very high concentrations; Inhibition of ASP^+ uptake (in words) (hOCT2 WT [6]): inhibit a small part of the ASP^+ uptake only at very high concentrations
9 | – | – | – | – | Nc1ccc(-c2cc(=O)c3cc(O)ccc3o2)cc1 [aminogenistein] | Effect on hOCT2 WT-mediated ASP^+ uptake (inhibition of p56^lck tyrosine kinase) [9, 13]: strong significant inhibition; Effect on hOCT2 Ala270Ser-mediated ASP^+ uptake (inhibition of p56^lck tyrosine kinase) [10, 13]: strong significant inhibition
10 | – | – | – | – | Clc1ccc(C(c2ccc(Cl)cc2)n2cc[n+](CC(OCc3ccc(Cl)cc3Cl)c3ccc(Cl)cc3Cl)c2)cc1 (stereo not drawn) [calmidazolium] | Effect on hOCT2 WT-mediated ASP^+ uptake (inhibition of calmodulin) [9, 14]: strong significant inhibition; Effect on hOCT2 Ala270Ser-mediated ASP^+ uptake (inhibition of calmodulin) [10, 14]: strong significant inhibition

Row | SMILES | IC50 (hOCT2 Ala270Ser [4]) | hOCT2 Ala270Ser logIC50 ± SEM (hOCT2 Ala270Ser [4]; hOCT2 Ala270Ser cells) | IC50 (hOCT2 WT [5]) | hOCT2 WT logIC50 ± SEM (hOCT2 WT [6]) | other results
11 | N.N.[Cl][Pt][Cl] [Cisplatin, cisplatin] | 9 µM | −5.04 ± 0.11 | 16 µM | −4.80 ± 0.10 | logEC50 ± SEM, MTT assay (hOCT2 WT cells; [11]): −4.89 ± 0.11; EC50 (hOCT2 WT cells; [12]): 13 µM; Cellular platinum concentration (hOCT2 Ala270Ser [7]): 221 ± 10 µg Pt/g protein; Cellular platinum concentration (hOCT2 WT [8]): 264 ± 10 µg Pt/g protein; logEC50 ± SEM, MTT assay (hOCT2 Ala270Ser cells; [11]): −4.48 ± 0.05; EC50 (hOCT2 Ala270Ser cells; [12]): 33 µM
